# According to EP0338372A2, “Solubilized pro-drugs” (AMERICAN CYANAMID COMPANY, priority 1988, dated 1989):
# Columns and labels:
# [1] = system: lymphocytic leukemia P388; test: Lymphocytic leukemia P388 test; type: in vivo, BDF1 mice
# melanotic melanoma B16 = test: Melanotic Melanoma B16 test; type: in vivo, BDF1 mice
# [2] = Dose 0.78 mg/kg intraperitoneally on days 1, 5 and 9
# [3] = Dose 1.56 mg/kg intraperitoneally on days 1, 5 and 9
# [4] = Dose 3.12 mg/kg intraperitoneally on days 1, 5 and 9
# [5] = Dose 6.25 mg/kg intraperitoneally on days 1, 5 and 9
# [6] = Dose 12.5 mg/kg intraperitoneally on days 1, 5 and 9
# [7] = Dose 25 mg/kg intraperitoneally on days 1, 5 and 9
# [8] = Dose 50 mg/kg intraperitoneally on days 1, 5 and 9
# [9] = Dose 100 mg/kg intraperitoneally on days 1, 5 and 9
# [10] = Dose 200 mg/kg intraperitoneally on days 1, 5 and 9
Compound,"Median Survival [1, 4]","T/C x 100 % [1, 4]","Median Survival [1, 5]","T/C x 100 % [1, 5]","Median Survival [1, 6]","T/C x 100 % [1, 6]","Median Survival [1, 7]","T/C x 100 % [1, 7]","Median Survival [1, 8]","T/C x 100 % [1, 8]","Median Survival [1, 9]","T/C x 100 % [1, 9]","Median Survival [1, 10]","T/C x 100 % [1, 10]",Median Survival (melanotic melanoma B16; [6]),T/C x 100 % (melanotic melanoma B16; [6]),Median Survival (melanotic melanoma B16; [7]),T/C x 100 % (melanotic melanoma B16; [7]),Median Survival (melanotic melanoma B16; [8]),T/C x 100 % (melanotic melanoma B16; [8]),other results
"O=C(c1ccccc1)N1CCN=C1N(N=Cc1c2ccccc2c(C=NN(C(=O)c2ccccc2)C2=NCCN2C(=O)c2ccccc2)c2ccccc12)C(=O)c1ccccc1 [2,2-(9,14-Anthracenediyldimethylidyne)bis[1-(1-benzoyl-4,5-dihydro-1H-imidazol-2-yl)hydrazide] of Benzoic Acid]",17 days,170%,18 days,180%,19 days,190%,19.5 days,195%,20 days,200%,23 days,320%,32 days,320%,29.5 days,134%,32 days,145%,40 days,182%,"Median Survival [1, 2]: 15.5 days; T/C x 100 % [1, 2]: 155%; Median Survival [1, 3]: 17.5 days; T/C x 100 % [1, 3]: 175%; Median Survival (melanotic melanoma B16; [9]): 57.5 days; T/C x 100 % (melanotic melanoma B16; [9]): 261%; Median Survival (melanotic melanoma B16; [10]): 50 days; T/C x 100 % (melanotic melanoma B16; [10]): 227%"
"CC(=O)N1CCN=C1N(N=Cc1c2ccccc2c(C=NN(C(C)=O)C2=NCCN2)c2ccccc12)C(C)=O [2-[[10-[[Acetyl(1-acetyl-4,5-dihydro-1H-imidazol-2-yl)hydrazono]methyl]-9-anthracenyl]methylene]-1-(4,5-dihydro-1H-imidazol-2-yl)hydrazide of Acetic Acid]",–,–,12.5 days,125%,13 days,130%,15.5 days,155%,16.5 days,165%,17 days,170%,17.5 days,175%,28 days,127%,30 days,136%,29.5 days,134%,Median Survival (melanotic melanoma B16; [9]): 37 days; T/C x 100 % (melanotic melanoma B16; [9]): 168%; Median Survival (melanotic melanoma B16; [10]): 40 days; T/C x 100 % (melanotic melanoma B16; [10]): 182%
"[2-[[[10-[((4,5-Dihydro-1H-imidazol-2-yl)ethylhydrazono]methyl]-9-anthracenyl]methylene] hydrazino]-4,5-dihydro-1H-imidazol-1-yl]phosphonic Acid, Hydroiodide",–,–,–,–,–,–,–,–,–,–,–,–,–,–,–,–,–,–,–,–,"Median Survival ([1]; mouse, in vivo, ip, 0.4 mg/kg): 18 days; T/C x 100 % ([1]; mouse, in vivo, ip, 0.4 mg/kg): 164%; Median Survival ([1]; mouse, in vivo, ip, 0.8 mg/kg): 21.5 days; T/C x 100 % ([1]; mouse, in vivo, ip, 0.8 mg/kg): 195%; Median Survival ([1]; mouse, in vivo, ip, 1.6 mg/kg): 18 days; T/C x 100 % ([1]; mouse, in vivo, ip, 1.6 mg/kg): 164%; Median Survival ([1]; mouse, in vivo, ip, 3.2 mg/kg): 22.5 days; T/C x 100 % ([1]; mouse, in vivo, ip, 3.2 mg/kg): 205%; Median Survival ([1]; mouse, in vivo, ip, 6.3 mg/kg): 24 days; T/C x 100 % ([1]; mouse, in vivo, ip, 6.3 mg/kg): 218%; Median Survival ([1]; mouse, in vivo, ip, 12.5 mg/kg): 25 days; T/C x 100 % ([1]; mouse, in vivo, ip, 12.5 mg/kg): 227%; Median Survival ([1]; mouse, in vivo, ip, 25 mg/kg): 25 days; T/C x 100 % ([1]; mouse, in vivo, ip, 25 mg/kg): 227%; Median Survival ([1]; mouse, in vivo, ip, 50 mg/kg): 25.5 days; T/C x 100 % ([1]; mouse, in vivo, ip, 50 mg/kg): 232%"
"O=C(c1cccc([N+](=O)[O-])c1)N1CCN=C1N(N=Cc1c2ccccc2c(C=NN(C(=O)c2cccc([N+](=O)[O-])c2)C2=NCCN2C(=O)c2cccc([N+](=O)[O-])c2)c2ccccc12)C(=O)c1cccc([N+](=O)[O-])c1 [2,2'(9,10-Anthracenediyldimethylidyne)bis[1-[4,5-dihydro-1-(3-nitrobenzoyl)-1H-imidazol-2-yl]hydra-zide] of 3-nitrobenzoic acid]",16 days,133%,16 days,133%,13.5 days,113%,18 days,150%,16.5 days,138%,18 days,150%,21.5 days,179%,–,–,–,–,–,–,–
